Assay results as given in patent US6524560B1, “Use of substituted vinyltetrahydronaphthalenes and vinyl-benzotetrahydropyrans as light protection agents” (BASF Aktiengesellschaft, priority 1999, dated 2003).

Columns and labels:
[1] = UV absorption (absorption maximum and specific absorbance E 1/1); format: physicochemical; conditions: for λmax: UV absorption maximum; for E^1/1: specific absorbance at λmax
[2] = Standardized method for determining photostability (sun test); format: physicochemical; conditions: 5% strength by weight alcoholic solution on glass plate, 40° C.; for Photostability 30 min: 30 min irradiation; for Photostability 2 h: 2 h irradiation
Method: Standardized Method for Determining Photostability (Sun Test)
A 5% strength by weight alcoholic solution of the light protection agent to be tested is applied, using an Eppendorf pipette (20 μl), to the milled area of a small glass plate. Owing to the presence of the alcohol, the solution distributes uniformly on the roughened surface of the glass. The amount applied corresponds to the amount of light protection agent required to achieve an average sun protection factor in suncreams. In the test, four small glass plates are irradiated in each case. […] The small glass plates are cooled slightly during irradiation using a water cooling system located at the base of the sun test apparatus. The temperature inside the sun test apparatus is 40° C. during irradiation. After the samples have been irradiated, they are washed with ethanol in a dark 50 ml graduated flask and measured using a photometer. The blank samples are likewise applied to small glass plates and evaporated at room temperature for 30 minutes. Like the other samples, they are washed off with ethanol and diluted to 100 ml and measured.

[3] = used alone or in combination with UV-B filters; cited from earlier work

Row | SMILES | λmax [1] | E^1/1 [1] | Photostability 30 min [2] | Photostability 2 h [2] | photochemical stability [3]
1 | CC(=O)C(=Cc1ccc2c(c1)C(C)(C)CCO2)C(C)=O [Example 3] | 330 nm | 801 | 97% | 84% | –
2 | CC(=C(C#N)C#N)c1ccc2c(c1)C(C)(C)CCC2 [Example 1] | 346 nm | 694 | 96% | 90% | –
3 | CCOC(=O)C(=Cc1cc2c(cc1C)C(C)(C)CCC2(C)C)C(=O)OCC [Example 7] | 294 nm | 594 | 99% | 95% | –
4 | CCOC(=O)C(=Cc1ccc2c(c1)C(C)(C)CCC2(C)C)C(=O)OCC [Example 6] | 294 nm | 411 | 100% | 99% | –
5 | CCOC(=O)C(=Cc1ccc2c(c1)C(C)(C)CCO2)C(=O)OCC [Example 2] | 320 nm | 616 | 100% | 95% | –
6 | CC(C)(C)C(=O)/C(C#N)=C/c1ccc2c(c1)C(C)(C)CCC2(C)C [Example 5] | 330 nm | 601 | 86% | 83% | –
7 | Cc1cc2c(cc1C=C(C#N)C#N)C(C)(C)CCC2(C)C [Example 4] | 336 nm | 700 | 95% | 83% | –
8 | CCOC(=O)C(=Cc1cc2c(cc1OC)C(C)(C)CCC2(C)C)C(=O)OCC [Example 8] | – | – | 100/100% | 100/100% | –
9 | COc1ccc(C(=O)CC(=O)c2ccc(C(C)(C)C)cc2)cc1 [PARSOL 1789, 4-(1,1-dimethylethyl)-4′-methoxydibenzoylmethane] | – | – | – | – | does not have sufficient photochemical stability
